Measurements taken from patent US7423054B2, “Therapeutic pyrazolo[3,4-b]pyridines and indazoles” (Warner Lambert Company LLC, priority 2004, dated 2008).
Counter-ions that a name gives are not always drawn.

Tests used:
[1] = biological target: T1, human serotonin transporter (hSERT) (Homo sapiens, UniProt P31645); assay: hSERT receptor binding ([125I]-RTI-55 displacement, membranes of transfected HEK-293 cells); details: HEK-293 membranes, Ki from IC50 by Cheng-Prusoff, read-out: SERT Ki
T1 construct: expressed in transfected cells; host or cells: HEK-293 cells (membrane preparation)
T1 sequence (P31645 whole entry): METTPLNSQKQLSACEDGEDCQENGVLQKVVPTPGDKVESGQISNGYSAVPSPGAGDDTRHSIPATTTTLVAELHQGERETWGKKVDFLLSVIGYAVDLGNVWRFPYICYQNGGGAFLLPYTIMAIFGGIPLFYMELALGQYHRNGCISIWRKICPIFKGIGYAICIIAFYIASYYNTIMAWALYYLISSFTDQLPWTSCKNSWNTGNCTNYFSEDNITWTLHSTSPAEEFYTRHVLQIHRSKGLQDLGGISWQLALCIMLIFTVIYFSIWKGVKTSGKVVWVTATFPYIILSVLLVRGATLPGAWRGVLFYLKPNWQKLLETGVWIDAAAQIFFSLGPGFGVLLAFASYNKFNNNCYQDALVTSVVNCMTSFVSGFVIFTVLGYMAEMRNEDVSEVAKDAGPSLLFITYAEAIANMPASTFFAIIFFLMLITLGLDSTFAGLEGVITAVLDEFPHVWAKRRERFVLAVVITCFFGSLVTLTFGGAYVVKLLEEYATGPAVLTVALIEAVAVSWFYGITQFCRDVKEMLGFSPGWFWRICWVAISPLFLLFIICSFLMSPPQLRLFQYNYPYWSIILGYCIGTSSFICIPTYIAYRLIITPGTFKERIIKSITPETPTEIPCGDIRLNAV
Method: (§1) The ability of the compounds of the present invention to inhibit a norepinephrine transporter and/or a serotonin transporter can be determined using conventional radioligand receptor transport assays. The receptors can be heterologously expressed in cell lines and experiments conducted in membrane preparations from the cell lines that express a norepinephrine transporter and/or a serotonin transporter.
(§2) Cell pastes of HEK-293 cells transfected with a human serotonin transporter cDNA were prepared. The cell pastes were resuspended in 400 to 700 ml of Krebs-HEPES assay buffer (25 mM HEPES, 122 mM NaCl, 3 mM KCl, 1.2 mM MgSO4, 1.3 mM CaCl2, and 11 mM glucose, pH 7.4) with a Polytron homogenizer at Setting 7 for 30 seconds. Aliquots of membranes (˜2.5 mg/ml protein) were stored in liquid nitrogen until used.
Assays were set up in FlashPlates pre-coated with 0.1% PEI in a total volume of 250 μl containing: test compound (10^−5M to 10^−12M), cell membranes, and 50 pM [^125I]-RTI-55 (Perkin Elmer, NEX-272; specific activity 2200 Ci/mmol). The reaction was incubated and gently agitated for 90 minutes at room temperature, and terminated by removal of assay volume. Plates were covered, and bound [^125I]-RTI-55 was determined using a Wallac Trilux Beta Plate Counter. Test compounds were run in duplicate, and specific binding was defined as the difference between binding in the presence and absence of 10 μM citalopram.
Excel and GraphPad Prism software were used for data calculation and analysis. IC50 values were converted to Ki values using the Cheng-Prusoff equation. The Ki values (nM) for the hSERT are reported below in Table 11: […]

[2] = biological target: T2, human norepinephrine transporter (hNET) (Homo sapiens, UniProt P23975); assay: hNET receptor binding ([125I]-RTI-55 displacement, membranes of transfected HEK-293 cells); details: HEK-293 membranes, Ki from IC50 by Cheng-Prusoff, read-out: NET Ki
T2 construct: expressed in transfected cells; host or cells: HEK-293 cells (membrane preparation)
T2 sequence (P23975 whole entry): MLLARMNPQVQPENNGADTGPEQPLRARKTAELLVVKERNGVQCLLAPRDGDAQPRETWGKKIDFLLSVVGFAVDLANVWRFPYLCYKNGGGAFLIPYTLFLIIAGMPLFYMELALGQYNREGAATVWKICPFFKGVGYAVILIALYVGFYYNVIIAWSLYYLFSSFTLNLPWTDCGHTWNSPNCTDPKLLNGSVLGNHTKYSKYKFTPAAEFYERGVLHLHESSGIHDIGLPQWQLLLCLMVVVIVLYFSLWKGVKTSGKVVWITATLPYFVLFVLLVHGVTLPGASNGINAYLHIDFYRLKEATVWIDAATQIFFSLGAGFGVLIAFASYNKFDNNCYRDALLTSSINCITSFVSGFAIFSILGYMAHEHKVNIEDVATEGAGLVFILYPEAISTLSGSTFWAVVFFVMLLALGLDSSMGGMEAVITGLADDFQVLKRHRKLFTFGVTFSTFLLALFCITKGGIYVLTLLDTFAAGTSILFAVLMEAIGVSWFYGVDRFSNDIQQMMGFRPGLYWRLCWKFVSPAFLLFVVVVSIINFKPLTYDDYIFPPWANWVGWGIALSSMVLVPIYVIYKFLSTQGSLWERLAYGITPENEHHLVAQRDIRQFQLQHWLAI
From the text: as §1
as §2, with “norepinephrine” for “serotonin”, “setting” for “Setting”, “(5” for “(˜2.5”
The binding assay was set up in Beckman deep-well polypropylene plates with a total volume of 250 μl containing: test compound (10^−5M to 10^−12M), cell membranes, and 50 pM [^125I]-RTI-55 (Perkin Elmer, NEX-272; specific activity 2200 Ci/mmol). The reaction was incubated by gentle agitation for 90 minutes at room temperature and was terminated by filtration through Whatman GF/C filter plates using a Brandel 96-well plate harvester. Scintillation fluid (100 μl) was added to each well, and bound [^125I]-RTI-55 was determined using a Wallac Trilux Beta Plate Counter. Test compounds were run in duplicate, and specific binding was defined as the difference between binding in the presence and absence of 10 μM desipramine.
Excel and GraphPad Prism software were used for data calculation and analysis. IC50 values were converted to Ki values using the Cheng-Prusoff equation. The Ki values (nM) for the hNET are reported below in Table 11.

SMILES	Ki [1]	Ki [2]
Fc1cccc(F)c1-n1nc(OC2CCNCC2)c2ccccc21 [Example 36, 1-(2,6-Difluoro-phenyl)-3-(piperidin-4-yloxy)-1H-indazole hydrochloride]	82.7 nM	5.16 nM
Fc1cccc(F)c1-n1nc(OC[C@H]2CCNC2)c2ccccc21 [Example 37, (S)-1-(2,6-Difluoro-phenyl)-3-(pyrrolidin-3-ylmethoxy)-1H-indazole hydrochloride]	105 nM	6.05 nM
Fc1ccc(F)c(-n2nc(OC[C@H]3CCCNC3)c3ccccc32)c1 [Example 38, (S)-1-(2,5-Difluoro-phenyl)-3-(piperidin-3-ylmethoxy)-1H-indazole hydrochloride]	199 nM	6.09 nM
Fc1ccc(F)c(-n2nc(OC3CCNCC3)c3cc(F)ccc32)c1 [Example 39, 1-(2,5-Difluoro-phenyl)-5-fluoro-3-(piperidin-4-yloxy)-1H-indazole hydrochloride]	34.4 nM	9.57 nM
Fc1ccc(F)c(-n2nc(OC[C@@H]3CCNC3)c3cc(F)ccc32)c1 [Example 40, (R)-1-(2,5-Difluoro-phenyl)-5-fluoro-3-(pyrrolidin-3-ylmethoxy)-1H-indazole hydrochloride]	30.8 nM	5.02 nM
Clc1ccc(-n2nc(OC3CCNCC3)c3ccccc32)cc1 [Example 41, 1-(4-Chloro-phenyl)-3-(piperidin-4-yloxy)-1H-indazole hydrochloride]	79.7 nM	299 nM
c1ccc(-n2nc(OC[C@H]3CCCNC3)c3ccccc32)nc1 [Example 44, (S)-(−)-3-(Piperidin-3-ylmethoxy)-1-pyridin-2-yl-1H-indazole maleate]	365 nM	100 nM
Fc1ccc2c(c1)c(OC[C@@H]1CNCCO1)nn2-c1ccccc1F [Example 46, (S)-(+)-5-Fluoro-1-(2-fluorophenyl)-3-(morpholin-2-ylmethoxy)-1H-indazole maleate]	413 nM	5.7 nM
Fc1ccc(-n2nc(OC[C@H]3CCCNC3)c3cc(F)ccc32)c(F)c1 [Example 49, (S)-(−)-1-(2,4-Difluorophenyl)-5-fluoro-3-(piperidin-3-ylmethoxy)-1H-indazole hydrochloride]	20.5 nM	98.5 nM
Fc1ccc2c(c1)c(OC[C@@H]1CNCCO1)nn2-c1c(F)cccc1F [Example 50, (S)-1-(2,6-Difluoro-phenyl)-5-fluoro-3-(morpholin-2-ylmethoxy)-1H-indazole hydrochloride]	1140 nM	5.2 nM
CC1(COc2nn(-c3ccccc3F)c3ccc(F)cc23)CCCNC1 (centres unmarked) [Example 52]	45.4 nM	35.7 nM
CC1(COc2nn(-c3ccccc3F)c3ccccc23)CCCNC1 (centres unmarked) [Example 53, 1-(2-Fluoro-phenyl)-3-(3-methyl-piperidin-3-ylmethoxy)-1H-indazole hydrogen chloride]	146 nM	54.1 nM
CC1(COc2nn(-c3ccccc3F)c3ccc(F)cc23)CCNCC1 [Example 54, 5-Fluoro-1-(2-fluoro-phenyl)-3-(4-methyl-piperdin-4-ylmethoxy)-1H-indazole hydrogen chloride]	28.5 nM	274 nM
Fc1ccc2c(c1)c(OC[C@@H]1CCCNC1)nn2-c1ccccc1F [Example 55, (R)-5-Fluoro-1-(2-fluoro-phenyl)-3-(piperidin-3-ylmethoxy)-1H-indazole maleate]	126 nM	71.2 nM
Fc1ccc(F)c(-n2nc(OC3CCNCC3)c3cc(Cl)ccc32)c1 [Example 58, 5-Chloro-1-(2,5-difluoro-phenyl)-3-(piperidin-4-yloxy)-1H-indazole hydrochloride]	134 nM	56 nM
Cc1cccc2c(OC3CCNCC3)nn(-c3ccccc3)c12 [Example 59, 7-Methyl-1-phenyl-3-(piperidin-4-yloxy)-1H-indazole hydrochloride]	32.7 nM	69.1 nM
